The results in this text go back to ChEMBL document CHEMBL2046389, “Contribution of indazolinone tautomers to kinase activity” (Bioorg Med Chem Lett, 2012).

This test addresses Vascular endothelial growth factor receptor 2 (Homo sapiens, UniProt P35968). Nature of the test: Inhibition of KDR in presence of 1 mM ATP.

Broadly, the IC50 is the concentration that gives 50% inhibition.

Sequence of Vascular endothelial growth factor receptor 2 (P35968 whole entry): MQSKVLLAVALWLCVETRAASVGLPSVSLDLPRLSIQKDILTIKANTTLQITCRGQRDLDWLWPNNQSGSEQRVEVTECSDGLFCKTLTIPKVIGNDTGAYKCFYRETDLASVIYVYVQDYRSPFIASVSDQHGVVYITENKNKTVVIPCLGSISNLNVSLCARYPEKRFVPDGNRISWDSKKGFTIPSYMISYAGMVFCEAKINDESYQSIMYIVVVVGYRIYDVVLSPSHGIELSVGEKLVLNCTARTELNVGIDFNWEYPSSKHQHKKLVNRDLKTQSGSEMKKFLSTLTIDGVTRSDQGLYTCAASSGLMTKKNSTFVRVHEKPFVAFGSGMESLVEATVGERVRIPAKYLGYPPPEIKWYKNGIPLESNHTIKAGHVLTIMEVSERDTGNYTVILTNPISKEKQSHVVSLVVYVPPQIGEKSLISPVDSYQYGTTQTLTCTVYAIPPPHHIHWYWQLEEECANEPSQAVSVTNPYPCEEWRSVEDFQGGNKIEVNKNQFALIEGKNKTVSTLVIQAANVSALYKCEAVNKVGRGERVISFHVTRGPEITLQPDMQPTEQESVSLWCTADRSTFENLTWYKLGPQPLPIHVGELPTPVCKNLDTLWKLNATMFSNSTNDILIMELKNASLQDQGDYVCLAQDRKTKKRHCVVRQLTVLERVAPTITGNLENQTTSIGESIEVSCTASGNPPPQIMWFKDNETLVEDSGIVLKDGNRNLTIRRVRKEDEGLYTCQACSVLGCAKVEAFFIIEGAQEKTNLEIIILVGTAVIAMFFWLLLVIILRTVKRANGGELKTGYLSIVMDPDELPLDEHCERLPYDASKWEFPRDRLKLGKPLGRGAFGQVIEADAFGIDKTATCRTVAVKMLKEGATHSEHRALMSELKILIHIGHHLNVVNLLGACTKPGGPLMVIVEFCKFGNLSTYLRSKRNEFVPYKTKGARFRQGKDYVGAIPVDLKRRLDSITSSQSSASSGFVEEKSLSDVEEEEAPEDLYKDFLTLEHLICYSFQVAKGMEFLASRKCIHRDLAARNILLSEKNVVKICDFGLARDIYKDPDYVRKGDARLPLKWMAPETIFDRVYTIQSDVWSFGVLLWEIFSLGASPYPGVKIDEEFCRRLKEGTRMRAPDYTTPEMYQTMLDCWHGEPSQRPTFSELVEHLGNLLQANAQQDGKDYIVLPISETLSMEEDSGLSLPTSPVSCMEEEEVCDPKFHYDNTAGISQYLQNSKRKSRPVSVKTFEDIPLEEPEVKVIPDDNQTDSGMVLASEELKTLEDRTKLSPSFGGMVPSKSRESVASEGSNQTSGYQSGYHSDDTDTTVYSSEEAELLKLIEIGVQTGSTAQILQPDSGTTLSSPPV

For the compound `O=C(Nc1ccc(-c2cccc3c(=O)[nH][nH]c23)cc1)Nc1cccc(C(F)(F)F)c1`, the IC50 came to 0.04 µM. For `Cc1cccc(NC(=O)Nc2ccc(-c3cccc4c(N)n[nH]c34)cc2)c1` the value was over 1000 µM.

With `Cc1cccc(NC(=O)Nc2ccc(-c3cccc4c3C(=O)NC4)cc2)c1`, the IC50 is over 1000 µM. Regarding `O=C(Nc1ccc(-c2cccc3[nH][nH]c(=O)c23)cc1)Nc1cccc(C(F)(F)F)c1`, the IC50 turned out to be 0.01 µM.
